Measurements: patent US12263248B2, “Compounds and compositions for intracellular delivery of therapeutic agents” (ModernaTX, Inc., priority 2018, dated 2025)

Columns and labels:
[1] = Particle size and polydispersity index of nanoparticle compositions (Zetasizer Nano ZS); format: physicochemical
Protocol: A Zetasizer Nano ZS (Malvern Instruments Ltd, Malvern, Worcestershire, UK) can be used to determine the particle size, the polydispersity index (PDI) and the zeta potential of the nanoparticle compositions in 1×PBS in determining particle size and 15 mM PBS in determining zeta potential.

[2] = Encapsulation efficiency of RNA (QUANT-IT RIBOGREEN RNA assay); format: physicochemical
Protocol: For nanoparticle compositions including an RNA, a QUANT-IT™ RIBOGREEN® RNA assay (Invitrogen Corporation Carlsbad, CA) can be used to evaluate the encapsulation of an RNA by the nanoparticle composition. The samples are diluted to a concentration of approximately […] in a TE buffer solution (10 mM Tris-HCl, 1 mM EDTA, pH 7.5). 50 μL of the diluted samples are transferred to a polystyrene 96 well plate and either 50 μL of TE buffer or 50 μL of a 2% Triton X-100 solution is added to the wells. The plate is incubated at a temperature of 37° C. for 15 minutes. The RIBOGREEN® reagent is diluted 1:100 in TE buffer, and 100 μL of this solution is added to each well. The fluorescence intensity can be measured using a fluorescence plate reader (Wallac Victor 1420 Multilabel Counter; Perkin Elmer, Waltham, MA) at an excitation wavelength of, for example, about 480 nm and an emission wavelength of, for example, about 520 nm. The fluorescence values of the reagent blank are subtracted from that of each of the samples and the percentage of free RNA is determined by dividing the fluorescence intensity of the intact sample (without addition of Triton X-100) by the fluorescence value of the disrupted sample (caused by the addition of Triton X-100).

luciferase (Luc) mRNA [3] = assay: Luc expression, whole body bioluminescence after intravenous administration to mice; format: in vivo; conditions: for Fold increase in total body Luc Flux relative to MC3 at 6 h: Table 3A; for Total Flux 3 hours / Total Flux 6 hours / Total Flux 24 hours: Luc mRNA; for flux at all timepoints measured: 3, 6 and 24 hour, in words
Protocol: In order to monitor how effectively various nanoparticle compositions deliver therapeutic and/or prophylactics to targeted cells, different nanoparticle compositions including a particular therapeutic and/or prophylactic (for example, a modified or naturally occurring RNA such as an mRNA) are prepared and administered to rodent populations. Mice are intravenously, intramuscularly, intraarterially, or intratumorally administered a single dose including a nanoparticle composition with a formulation such as those provided in Example 3. In some instances, mice may be made to inhale doses. Dose sizes may range from 0.001 mg/kg to 10 mg/kg, where 10 mg/kg describes a dose including 10 mg of a therapeutic and/or prophylactic in a nanoparticle composition for each 1 kg of body mass of the mouse. A control composition including PBS may also be employed.
Upon administration of nanoparticle compositions to mice, dose delivery profiles, dose responses, and toxicity of particular formulations and doses thereof can be measured by enzyme-linked immunosorbent assays (ELISA), bioluminescent imaging, or other methods. For nanoparticle compositions including mRNA, time courses of protein expression can also be evaluated. Samples collected from the rodents for evaluation may include blood, sera, and tissue (for example, muscle tissue from the site of an intramuscular injection and internal tissue); sample collection may involve sacrifice of the animals.
The efficacy of the nanoparticle compositions presented in Table 1A was evaluated with a bioluminescence study. Formulations were administered intravenously to mice (n=6) at a dosage of 0.5 mg/kg (mpk) and bioluminescence measured at 3, 6, and 24 hour time points. The standard MC3 formulation and, in some instances, a control (e.g., a PBS control) were evaluated for comparison. […] In general, flux decreased as time progressed to less than 10% of the initial flux.
(§1) Whole body and ex vivo organ bioluminescent imaging of mice: CD-1 mice were injected 15 minutes prior to the imaging timepoint intraperitoneally (IP) with 200 μL Xenolight D-luciferin K+ salt, diluted in PBS just prior to use to a concentration of 15 mg/mL. Ex vivo imaging of organs was completed within 25 minutes of luciferin administration. All images were quantified by region of interest for total flux.

luciferase (Luc) mRNA [4] = assay: Luc expression in liver, lung, spleen and femur 6 hours after intravenous administration; format: in vivo; conditions: mice, 0.5 mpk; for Total Flux Liver / Total Flux Lung / Total Flux Spleen: intravenous; for Flux in the liver / Flux in the spleen: i.v., in words
Protocol: The efficacy of the nanoparticle compositions presented in Table 1A was further evaluated by measuring the expression of modified luciferase in the liver, lung, spleen, and femur upon administration of a given composition. Formulations were administered intravenously to mice (n=3) at a dosage of 0.5 mpk and bioluminescence measured after 6 hours. The standard MC3 formulation and a PBS control were also tested. […] Flux in the liver was lowest for compositions including Compounds 58, 59, 137, and 141. Flux in the spleen was highest for compositions including Compounds 4, 7, 33, 34, 48, 53, 108, 129, 130, and 148, and lowest for compositions including Compounds 9, 59, 124, and 141.
as §1

[5] = Table 1A, lipid:DSPC:cholesterol:PEG-DMG 50:10:38.5:1.5 mol %
[6] = Table 1B, formulated with hEPO mRNA

Structure (SMILES)	PDI ([1]; Table 1A)	Size (nm) [1, 5] [nm]	EE (%) ([2]; Table 1A)	PDI [1, 6]	Size (nm) [1, 6] [nm]	EE (%) [2, 6] [%]	Fold increase in total body Luc Flux relative to MC3 at 6 h (luciferase (Luc) mRNA [3]; i.v. administration)	6 h Lipid/MC3 Avg. Luc Expression (luciferase (Luc) mRNA [3]; Table 3C, i.v. administration)	Fold increase AUC Lipid/MC3 (luciferase (Luc) mRNA [3]; Table 3C, i.v. administration)	AUC (h * p/s) (luciferase (Luc) mRNA [3]; Table 3C, i.v. administration, Luc)	Total Flux 3 hours (luciferase (Luc) mRNA [3]; mice, i.v., 0.5 mg/kg)	Total Flux 6 hours (luciferase (Luc) mRNA [3]; mice, i.v., 0.5 mg/kg)	Total Flux 24 hours (luciferase (Luc) mRNA [3]; mice, i.v., 0.5 mg/kg)	total flux at 3 hours (luciferase (Luc) mRNA [3]; mice, i.v., 0.5 mg/kg, comparison in words)	Total Flux Liver (luciferase (Luc) mRNA [4])	Total Flux Lung (luciferase (Luc) mRNA [4])	Total Flux Spleen (luciferase (Luc) mRNA [4])	flux at all timepoints measured (luciferase (Luc) mRNA [3]; mice, i.v., 0.5 mg/kg)	Flux in the liver (luciferase (Luc) mRNA [4])	Flux in the spleen (luciferase (Luc) mRNA [4])
CCCCCCCCCOC(=O)CCCCCCCN(CCCCCCCC(=O)OC(CCCCCCCC)CCCCCCCC)CCCC(=O)NC [Compound 239, Heptadecan-9-yl 8-((4-(methylamino)-4-oxobutyl)(8-(nonyloxy)-8-oxooctyl)amino)octanoate]	0.12	55.8	90.42	0.14	71.3	82.6	–	–	–	–	–	–	–	–	–	–	–	–	–	–
CCCCCCCCC(CCCCCCCC)OC(=O)CCCCCCCN(CCO)CCCC(=O)OCCCC [Compound 51, heptadecan-9-yl 8-((4-butoxy-4-oxobutyl)(2-hydroxyethyl)amino) octanoate]	0.17	148.8	89.83	–	–	–	0.025	–	–	–	1.34E+08	2.80E+08	6.20E+06	–	2.49E+07	3.67E+05	2.80E+07	–	–	–
CCCCCCCCC(CCCCCCCC)OC(=O)CCCCCCCN(CCO)CCCC(=O)OCCCCC [Compound 52, heptadecan-9-yl 8-((2-hydroxyethyl)(4-oxo-4-(pentyloxy)butyl)amino) octanoate]	0.19	130.5	93.25	–	–	–	–	–	–	–	2.91E+09	4.63E+09	2.55E+07	–	5.86E+08	2.80E+06	8.30E+07	–	–	–
CCCCCCCCCOC(=O)CCCCCCCN(CCO)CCCCCCCC(=O)OC(CC)CC [Compound 59, nonyl 8-((2-hydroxyethyl)(8-oxo-8-(pentan-3-yloxy)octyl)amino) octanoate]	0.24	237.0	94.44	–	–	–	0.00003	–	–	–	2.75E+05	2.79E+05	1.45E+05	–	2.87E+05	4.41E+04	9.68E+04	significantly lower flux	lowest	lowest
CCCCCCCCC(CCCCCCCC)OC(=O)CCCCCCCN(CCO)CCCCCCCCC1CC1CCCCCCCC (centres unmarked) [Compound 47, heptadecan-9-yl 8-((2-hydroxyethyl)(8-(2-octylcyclopropyl)octyl)amino)octanoate]	0.10	80.6	96.40	–	–	–	–	–	–	–	6.55E+10	5.38E+10	2.09E+09	–	4.86E+09	8.71E+06	8.33E+07	–	–	–
CCCCCCCCC(CCCCCCCC)OC(=O)CCCCCCCN(CCO)CCCC(=O)OCCCCCC [Compound 53, heptadecan-9-yl 8-((4-(hexyloxy)-4-oxobutyl)(2-hydroxyethyl)amino) octanoate]	0.13	125.4	95.8	–	–	–	2.11	–	–	–	1.91E+10	2.32E+10	1.01E+09	–	2.02E+09	2.47E+07	8.54E+08	–	–	highest

Continued, in another order:

PDI ([1]; Table 1A)	Size (nm) [1, 5] [nm]	EE (%) ([2]; Table 1A)	PDI [1, 6]	Size (nm) [1, 6] [nm]	EE (%) [2, 6] [%]	Structure (SMILES)	Fold increase in total body Luc Flux relative to MC3 at 6 h (luciferase (Luc) mRNA [3]; i.v. administration)	6 h Lipid/MC3 Avg. Luc Expression (luciferase (Luc) mRNA [3]; Table 3C, i.v. administration)	Fold increase AUC Lipid/MC3 (luciferase (Luc) mRNA [3]; Table 3C, i.v. administration)	AUC (h * p/s) (luciferase (Luc) mRNA [3]; Table 3C, i.v. administration, Luc)	Total Flux 3 hours (luciferase (Luc) mRNA [3]; mice, i.v., 0.5 mg/kg)	Total Flux 6 hours (luciferase (Luc) mRNA [3]; mice, i.v., 0.5 mg/kg)	Total Flux 24 hours (luciferase (Luc) mRNA [3]; mice, i.v., 0.5 mg/kg)	total flux at 3 hours (luciferase (Luc) mRNA [3]; mice, i.v., 0.5 mg/kg, comparison in words)	Total Flux Liver (luciferase (Luc) mRNA [4])	Total Flux Lung (luciferase (Luc) mRNA [4])	Total Flux Spleen (luciferase (Luc) mRNA [4])	flux at all timepoints measured (luciferase (Luc) mRNA [3]; mice, i.v., 0.5 mg/kg)	Flux in the liver (luciferase (Luc) mRNA [4])	Flux in the spleen (luciferase (Luc) mRNA [4])
0.120	76.7	96.52	–	–	–	CCCCCCCCC(CCCCCCCC)OC(=O)CCCCCCCN(CCO)CCCCCCCC(=O)OC1CCC(CCCCC)CC1 (centres unmarked) [Compound 66, Heptadecan-9-yl 8-((2-hydroxyethyl)(8-oxo-8-((4-pentylcyclohexyl)oxy)octyl)amino)octanoate]	0.103	6.28	8.20	6.76E+11	9.66E+10	4.577E+10	5.56E+09	highest	5.01E+09	4.20E+06	2.00E+07	–	–	–
–	53.5	−15.1	–	–	–	CCCCCCCCCOC(=O)CCCCCCCN(CCC#N)CCCCCCCC(=O)OC(CCCCCCCC)CCCCCCCC [Compound 21, Heptadecan-9-yl 8-((2-cyanoethyl)(8-(nonyloxy)-8-oxooctyl)amino) octanoate]	–	–	–	–	–	–	–	–	–	–	–	–	–	–
0.16	90.9	79.6	–	–	–	CCCCCCCCCOC(=O)CCCCCCCN(CCCCCCCC(=O)OC(CCCCCCCC)CCCCCCCC)CCC(=O)O [Compound 125, 3-((8-(Heptadecan-9-yloxy)-8-oxooctyl)(8-(nonyloxy)-8-oxooctyl)amino)propanoic acid]	–	–	–	–	2.44E+05	3.16E+05	–	–	–	–	–	significantly lower flux	–	–
0.14	130.8	92.54	–	–	–	CCCCCCCCCOC(=O)CCCCCCCN(CCO)CCCCCCCC(=O)OC(CCC)CCC [Compound 58, heptan-4-yl 8-((2-hydroxyethyl)(8-(nonyloxy)-8-oxooctyl)amino) octanoate]	0.00007	–	–	–	5.69E+05	7.60E+05	3.64E+05	–	8.71E+04	1.21E+04	2.38E+05	significantly lower flux	lowest	–
0.11	64.5	99.7	–	–	–	CCCCCCCCCOC(=O)CCCCCCCN(CCCCCCCC(=O)OC(CCCCCCCC)CCCCCCCC)CCCn1ccc(N)nc1=O [Compound 115, Heptadecan-9-yl 8-((3-(4-amino-2-oxopyrimidin-1(2H)-yl)propyl)(8-(nonyloxy)-8-oxooctyl)amino)octanoate]	–	–	–	–	2.13E+07	2.91E+07	–	–	–	–	–	–	–	–
0.17	112.1	95.18	–	–	–	CCCCCCCCCOC(=O)CCCCCCCN(CCO)CCCCCCCC(=O)OC(CCCCCC)CCCCCC [Compound 56, nonyl 8-((2-hydroxyethyl)(8-oxo-8-(tridecan-7-yloxy)octyl)amino) octanoate]	0.733	–	–	–	1.27E+10	8.06E+09	2.53E+08	–	1.04E+09	4.62E+06	1.98E+08	–	–	–
